Measured values reported in publication PMC9681820, “A PDE10A inhibitor CPL500036 is a novel agent modulating striatal function devoid of most neuroleptic side-effects” (Frontiers in Pharmacology, 2022).

Experiments:
[1] = Pharmacokinetics after oral gavage in dogs (plasma); assay type: in vivo; settings: both sexes, Beagle, dog plasma, 1.5 mg/kg oral gavage, mean ± SD, n = 4
Method: The study was carried out in 40 male Wistar Han rats (∼10 weeks; Tri-City Academic Laboratory Animal Centre, Research and Services Centre, Medical University of Gdansk). Rats were fasted for 12 h (water was available at libitum) before administration and fed 4 h post-dose. Rats received CPL500036 (3 mg/kg per oral gavage). At each of eight time points (15 min, 30 min as well as 1 h, 2 h, 4 h, 7 h, 12 h, and 24 h), five rats were killed by exsanguination, and samples of blood and brain were harvested. Two male and two female Beagle dogs (10.5–13 months old, MediTox s.r.o., Konarovice, Czech Republic) received CPL500036 in a dose of 1.5 mg/kg per oral gavage. Blood was taken by venepuncture from v. cephalica antebrachii at twelve time points (0 min, 15 min, 30 min as well as 1 h, 2 h, 3 h, 4 h, 6 h, 8 h, 12 h, 24 h, and 48 h.
Blood was collected into tubes containing the anticoagulant K2EDTA and centrifuged (2,000 × g, 15 min, 4°C) to obtain plasma. Brain samples were homogenized in water. Plasma and brain homogenates were stored at −80°C until analyses. Acetonitrile (150 μl) spiked with internal standard (donepezil; MilliporeSigma) was added to 50 μl of each plasma homogenate or brain homogenate, respectively. The mixture was shaken vigorously for 2 min and then centrifuged (4,000 × g, 4 min, room temperature). Supernatants were injected into a high-performance liquid chromatography system (Infinity™ 1,260; Agilent Technologies, Santa Clara, CA, United States) with a Zorbax SB column ([…]; 1.8 μm; Agilent Technologies). The mobile phase was ammonium formate (20 mM, pH 3.0) and acetonitrile with 0.1% formic acid. The gradient chromatographic separation used a flow rate of 0.4 ml/min for 7.5 min at a nominal temperature of 30°C. Signal acquisition was undertaken for 5.5 min using of a triple quadrupole mass spectrometer (6,460 series; Agilent Technologies) with electrospray ionization (5500 V, 320°C). Multiple-reaction monitoring was applied to detect the following transitions of the m/z ratio: 342.0–220.9 and 342–235.9 for CPL500036; 380.5–362.9 and 380.5–243.5 for donepezil. The drug concentration was calculated from the ratio of the peak area response relative to the internal standard using a standard curve.

[2] = test system: Sprague–Dawley rats; experiment: Catalepsy bar test; assay type: in vivo; settings: p.o.
Method: Sprague–Dawley rats (∼300 g; Charles River Laboratories, Wilmington, MA, United States) (n = 8–12/group) were treated (p.o.) with vehicle or CPL500036 (0.15 mg/kg, 0.3 mg/kg, 0.6 mg/kg or 2 mg/kg). As a positive control causing catalepsy, haloperidol (1 mg/kg, i.p.) was employed. One hour following drug administration, catalepsy (prolonged maintenance of an externally imposed abnormal posture) was assessed using the bar test as described by Ionova and Severtsev ([Ionov and Severtsev, 2012]). Testing was accomplished by placing each rat in an upright position with his forepaws resting on a horizontal bar (0.9 cm in diameter) suspended in a wooden frame 7.5 cm above the cage floor. The rat was allowed to keep his forepaws on the bar for a measurement lasting for 30 s. The latency to remove both forepaws from the bar was measured with a hand-held stopwatch. The test was repeated for each rat every 30 min up to 240 min. Rats were returned to their home cages between tests. Each rat was tested twice, at an interval of 1 week.

[3] = test system: cardiac 3D spheroids (cardiomyocytes and fibroblasts derived from human pluripotent cells); experiment: Cardiotoxicity in spontaneously beating cardiac 3D spheroids; assay type: cell-based
Method: The cardiotoxic effect of CPL500036 was evaluated in spontaneously beating cardiac 3D spheroids (comprising cardiomyocytes and fibroblasts derived from human pluripotent cells) by Cyprotex (Cheshire, United Kingdom). Experiments were carried out in accordance with the service-provider’s protocol. Specific parameters of cell health were assessed: number and size of spheroids, DNA structure, intracellular level of calcium ions, mitochondrial mass, membrane potential and cellular ATP. […] During the 14 days of the experiment, redosing occurred on three occasions. Spheroid hypertrophy was measured on days 3, 7, 10, and 14 using the “brightfield live cellular imaging” mode of a Cellomics ArrayScan® XTI system (Thermo Scientific, Waltham, MA, United States). On day-14, the spheroid model was analyzed using the confocal mode of Cellomics ArrayScan XTI following incorporation of appropriate fluorescent dyes. Subsequently, cellular ATP content was measured using CellTiterGlo® (Promega, Fitchburg, WI, United States). Mitomicyn C and dasatinib were used as positive controls (Supplementary Table S1).
concentration at which 50% maximum effect is observed for each cell health parameter; NR - No response observed.

[4] = test system: unilateral rat model of Parkinson’s disease; design: method as in Lenda et al., 2021; settings: Parkinson’s disease animal model; ref Lenda et al., 2021; cited from earlier work
[5] = test system: Wistar Han rats; experiment: Glucose tolerance test; assay type: in vivo; settings: 0.3 mg/kg, 1 mg/kg, and 3 mg/kg, p.o., 2 h before glucose bolus, n = 8
Method: Thirty-two male Wistar Han rats (∼10 weeks; Tri-City Academic Laboratory Animal Centre-Research and Services Centre, Medical University of Gdansk) were fasted for 16 h before experimentation. Animals underwent gavage with CPL500036 (0.3 mg/kg, 1 mg/kg or 3 mg/kg) or vehicle 2 h before receiving a glucose bolus (2 g/kg, i.p.; MilliporeSigma). Olanzapine (10 mg/kg) was used as an active comparator and delivered (s.c.) 30 min before the glucose bolus. Blood samples from the tail vein were collected from each rat right before drug administration, just before glucose loading as well as 15 min, 30 min, 60 min, 120 min, and 180 min after glucose administration. The glucose concentration was measured using a glucometer (Accu-ChekGo, Roche Diagnostics, Mannheim, Germany).

[6] = Hepatocyte stability assay; assay type: in vitro ADME; settings: data not shown, n = 6

Cc1ncc(C)n2nc(-c3ccn4cc(-c5ccccc5)nc4n3)nc12 [CPL500036, 7-[5,8-Dimethyl-(1,2,4)triazolo (1,5-a)pyrazin-2-yl]-2-phenylimidazo (1,2-a) pyrimidine]
Cmax [1]: 98.3 ± 55.4 ng/mL
Tmax [1]: 1.3 ± 0.5 h
half-life [1]: 2.1 ± 1.7 h
AUC(0-t) ([1]; read-out: AUC(0–24h)): 199 ± 106 ng·h/mL
catalepsy, bar test ([2]; 0.15 mg/kg, 60 min–240 min after administration): did not induce catalepsy
catalepsy, bar test ([2]; 0.3 mg/kg, appeared only at 210 min and 240 min): low cataleptogenic effect
catalepsy, bar test ([2]; 0.6 mg/kg, 60 min–240 min after administration): apparent 120 min–240 min following administration, but did not achieve the level elicited by haloperidol
catalepsy, bar test ([2]; 2 mg/kg, compared with haloperidol 1 mg/kg, i.p.): strong cataleptogenic effect comparable with that of haloperidol
minimum effective dose (MED) needed to elicit catalepsy ([2]; from AUC data of the duration of catalepsy): 0.6 mg/kg
effect on the number or size of spheroids, intracellular calcium concentration, mitochondrial mass, membrane potential or intracellular ATP ([3]; 0.0457 μM–100 µM): no effect
IC50 ([3]; Homo sapiens, 3D cardiac spheroids, 0.0457 μM–100 µM, read-out: IC50, impaired DNA structure): 37.4 µM
AC50 ([3]; Homo sapiens, 3D cardiac spheroids, read-out: DNA structure AC50): 37.4 µM
dose showing therapeutic activity [4]: 0.1 mg/kg
effect on the glucose level, glucose-tolerance test [5]: has no effect on the glucose level
active metabolites [6]: no active metabolites were identified
